Where two headings read alike, the source gives them in different places.
Tests used:
PI3Kα = PI3Kα (Homo sapiens (Human), UniProt P42336); test: Inhibition of PI3Kα efficacy assay (ADP-Glo kinase assay); type: biochemical; settings: read-out: PI3Kα inhibitory activity (IC50)
In short: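 Eight five-fold dilutions of compound (2 mM DMSO stock) tested; kinase reaction with PI and ATP ran 60 min at RT, followed by ADP-Glo and detection reagent steps of 40 min each. Four-parameter logistic fitting gave IC50 values.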

[1] = test system: MIA PaCa-2-AMGR drug-resistant cell line; test: MIA PaCa-2-AMGR drug-resistant cell proliferation inhibitory activity test; type: cell-based; settings: 72 h, MIA PaCa-2-AMGR drug-resistant cells, 3 days incubation, CellTiter-Glo
Method: Test Example 7: Generation of MIA PaCa-2-AMGR drug-resistant cell line
MIA PaCa-2 cells were seeded and cultured at 50 to 70% confluence in six-well plate with DMEM (10% FBS+2.5% horse serum) medium at 37° C. with 5% CO2. AMG510 was added for induction at three starting concentrations of 1 nM, 10 nM and 50 nM, and the medium containing the same concentration of AMG510 was replaced every 3 days. Cells were passaged once they reached confluence. After every two passages at a given concentration of drug, the concentration was increased in a 3-fold increment until final concentrations of 1 μM for AMG510 was achieved.
MIA PaCa-2-AMGR cells in logarithmic growth phase were collected and seeded into a clear-bottom 96-well plate at a density of 4×10^3 cells per well in 80 μL of medium, and then incubated overnight at 37° C. with 5% CO2. The compounds were serially diluted 5-fold in DMSO to obtain 8 concentrations, and then further diluted with DMEM (10% FBS+2.5% horse serum) cell culture medium to obtain the working solutions (5×), 20 μL of each working solution was added to the cell culture supernatant in each well, and the plate was further incubated for 3 days at 37° C. with 5% CO2. The plate was then equilibrated with CellTiter-Glo® reagent at room temperature (25° C.) for 10-30 minutes. After aspirating 50 μL of the medium, 50 μL of CellTiter-Glo® reagent was added. The cells were thoroughly mixed with the CellTiter-Glo® reagent using a microplate shaker for 2 minutes, and then incubated at room temperature for 10 minutes. The 96-well plate was placed in a multi-mode microplate reader to record the luminescence values (RLU).
The inhibitory rate was calculated using the following formula: […]
Data were analyzed using GraphPad Prism for IC50 values (Note: The negative control refers to the group without inhibitor) The data were presented m Table 9

PI3Kα, sequence (P42336 whole entry): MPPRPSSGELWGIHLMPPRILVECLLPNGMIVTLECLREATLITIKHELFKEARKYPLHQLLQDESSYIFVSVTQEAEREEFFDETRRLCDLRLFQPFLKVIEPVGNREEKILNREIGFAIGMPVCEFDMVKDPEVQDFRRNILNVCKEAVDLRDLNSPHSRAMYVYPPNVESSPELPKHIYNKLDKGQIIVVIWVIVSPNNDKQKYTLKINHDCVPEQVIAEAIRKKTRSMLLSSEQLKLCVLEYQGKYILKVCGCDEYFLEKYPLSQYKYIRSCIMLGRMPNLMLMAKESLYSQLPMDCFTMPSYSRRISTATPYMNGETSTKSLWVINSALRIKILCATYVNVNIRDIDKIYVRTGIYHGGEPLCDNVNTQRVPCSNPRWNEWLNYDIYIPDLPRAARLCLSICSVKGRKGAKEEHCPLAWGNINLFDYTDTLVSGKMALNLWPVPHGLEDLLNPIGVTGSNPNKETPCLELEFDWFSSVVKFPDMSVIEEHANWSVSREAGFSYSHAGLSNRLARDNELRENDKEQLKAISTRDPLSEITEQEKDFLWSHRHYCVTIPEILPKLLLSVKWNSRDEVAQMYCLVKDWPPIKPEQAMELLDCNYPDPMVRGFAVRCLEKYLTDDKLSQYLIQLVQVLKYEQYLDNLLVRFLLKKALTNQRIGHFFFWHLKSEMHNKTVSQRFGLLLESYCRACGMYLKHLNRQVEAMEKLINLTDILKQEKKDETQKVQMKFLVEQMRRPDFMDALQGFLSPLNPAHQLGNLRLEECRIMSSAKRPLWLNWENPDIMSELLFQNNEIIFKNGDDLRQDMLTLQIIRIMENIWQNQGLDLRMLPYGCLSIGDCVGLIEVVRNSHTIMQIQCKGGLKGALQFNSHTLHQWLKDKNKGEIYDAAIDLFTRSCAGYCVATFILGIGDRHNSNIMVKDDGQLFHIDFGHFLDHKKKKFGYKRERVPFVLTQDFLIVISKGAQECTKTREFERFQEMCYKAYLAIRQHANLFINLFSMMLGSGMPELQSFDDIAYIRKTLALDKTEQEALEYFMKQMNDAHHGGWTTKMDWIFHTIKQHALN
PI3Kα, sequence (P27986 whole entry partner): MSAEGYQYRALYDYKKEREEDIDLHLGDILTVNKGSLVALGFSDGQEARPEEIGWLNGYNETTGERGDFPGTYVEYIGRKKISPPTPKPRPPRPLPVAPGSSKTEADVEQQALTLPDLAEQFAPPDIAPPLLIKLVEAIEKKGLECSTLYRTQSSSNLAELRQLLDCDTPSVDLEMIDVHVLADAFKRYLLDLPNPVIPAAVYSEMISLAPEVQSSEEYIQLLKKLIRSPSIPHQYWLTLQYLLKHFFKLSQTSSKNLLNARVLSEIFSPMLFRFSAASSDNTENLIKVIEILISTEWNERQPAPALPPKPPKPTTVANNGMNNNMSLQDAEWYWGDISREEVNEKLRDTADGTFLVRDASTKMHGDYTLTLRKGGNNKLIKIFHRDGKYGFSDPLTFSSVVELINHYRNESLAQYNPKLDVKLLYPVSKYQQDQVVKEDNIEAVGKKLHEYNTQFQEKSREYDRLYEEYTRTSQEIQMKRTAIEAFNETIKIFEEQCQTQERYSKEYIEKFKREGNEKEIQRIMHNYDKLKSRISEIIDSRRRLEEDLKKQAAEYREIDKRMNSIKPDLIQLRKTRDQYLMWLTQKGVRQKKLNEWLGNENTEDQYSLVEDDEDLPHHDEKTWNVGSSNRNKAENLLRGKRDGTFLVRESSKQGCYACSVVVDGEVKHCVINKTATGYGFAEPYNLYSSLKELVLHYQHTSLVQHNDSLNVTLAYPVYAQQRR

Compound | IC50 (PI3Kα; Table 4) | IC50 [1] | IC50 (PI3Kα; Table 1) | IC50 (PI3Kα; Table 2)
COC(=O)c1ncc(-c2ccc3ncnc(N4CCN(C(=O)/C=C/C(C)=O)CC4)c3c2)cc1NS(=O)(=O)c1ccc(F)cc1F [Example 181, methyl (E)-3-((2,4-difluoro-phenyl)sulfonamido)-5-(4-(4-(4-oxopent-2-enoyl)piperazin-1-yl)quinazolin-6-yl)picolinate] | 0.00073 µM | 0.118 µM |  | 
COc1ncc(-c2ccc3ncnc(N4CCN(C(=O)/C=C/C(C)=O)C[C@@H]4C)c3c2)cc1NS(=O)(=O)c1c(F)cc(F)cc1F [Example 154, (S,E)-2,4,6-trifluoro-N-(2-methoxy-5-(4-(2-methyl-4-(4-oxopent-2-enoyl)piperazin-1-yl)quinazolin-6-yl)pyridin-3-yl)benzenesulfonamide] | 0.00054 µM | 0.0322 µM |  | 
COc1ncc(-c2ccc3ncnc(N4CCN(C(=O)/C=C/C(C)=O)CC4)c3c2)cc1NS(=O)(=O)c1c(F)cccc1F [Example 22, (E)-2,6-difluoro-N-(2-methoxy-5-(4-(4-(4-oxopent-2-enoyl)piperazin-1-yl)quinazolin-6-yl)pyridin-3-yl)benzenesulfonamide] |  | 0.0767 µM | 0.0116 µM | 
C=C(C(C)=O)C(=O)N1CCN(c2ncnc3ccc(-c4cnc(OC)c(NS(=O)(=O)c5ccc(F)cc5F)c4)cc23)CC1 [Example 168, 2,4-difluoro-N-(2-methoxy-5-(4-(4-(2-methylene-3-oxobutanoyl)piperazin-1-yl)quinazolin-6-yl)pyridin-3-yl)benzenesulfonamide] | 0.0062 µM | 0.192 µM |  | 
COc1ncc(-c2ccc3ncnc(N4C[C@@H](C)N(C(=O)/C=C/C(C)=O)C[C@@H]4C)c3c2)cc1NS(=O)(=O)c1c(F)cccc1F [Example 51, N-(5-(4-((2S,5R)-2,5-dimethyl-4-((E)-4-oxopent-2-enoyl)piperazin-1-yl)quinazolin-6-yl)-2-methoxypyridin-3-yl)-2,6-difluorobenzene-sulfonamide] |  | 0.181 µM |  | 0.0056 µM
COc1ncc(-c2ccc3ncnc(N4CCN(C(=O)/C=C/C(C)=O)C[C@@H]4C)c3c2)cc1NS(=O)(=O)c1sc(C)nc1C [Example 173, (S,E)-N-(2-methoxy-5-(4-(2-methyl-4-(4-oxopent-2-enoyl)piperazin-1-yl)quinazolin-6-yl)pyridin-3-yl)-2,4-dimethyl-thiazole-5-sulfonamide] | 0.0022 µM | 0.0626 µM |  | 
COc1ncc(-c2ccc3ncnc(N4CCN(C(=O)/C=C/C(C)=O)C[C@@H]4C)c3c2)cc1NS(=O)(=O)c1ccc(F)cc1Cl [Example 174, (S,E)-2-chloro-4-fluoro-N-(2-methoxy-5-(4-(2-methyl-4-(4-oxopent-2-enoyl)piperazin-1-yl)quinazolin-6-yl)pyridin-3-yl)benzene-sulfonamide] | 0.0035 µM | 0.0263 µM |  | 
COc1ncc(-c2ccc3ncnc(N4CCN(C(=O)/C=C/n5ccnn5)CC4)c3c2)cc1NS(=O)(=O)c1ccc(F)cc1F [Example 10, (E)-N-(5-(4-(4-(3-(1H-1,2,3-triazol-1-yl)acryloyl)piperazin-1-yl)quinazolin-6-yl)-2-methoxypyridin-3-yl)-2,4-difluorobenzenesulfonamide] |  | 0.226 µM | 0.00044 µM | 
COc1ncc(-c2ccc3ncnc(N4CCN(C(=O)/C=C/C(C)=O)C[C@@H]4C)c3c2)cc1NS(=O)(=O)c1ccc(F)cc1 [Example 153, (S,E)-4-fluoro-N-(2-methoxy-5-(4-(2-methyl-4-(4-oxopent-2-enoyl)piperazin-1-yl)quinazolin-6-yl)pyridin-3-yl)benzenesulfonamide] | 0.00073 µM | 0.0497 µM |  | 
COc1ncc(-c2ccc3ncnc(N4CCN(C(=O)/C=C/C(C)=O)C[C@@H]4C)c3c2)cc1NS(=O)(=O)c1c(F)cccc1F [Example 46, (S,E)-2,6-difluoro-N-(2-methoxy-5-(4-(2-methyl-4-(4-oxopent-2-enoyl)piperazin-1-yl)quinazolin-6-yl)pyridin-3-yl) benzenesulfonamide] |  | 0.0774 µM |  | 0.0017 µM
COc1ncc(-c2ccc3ncnc(N4CCN(C(=O)/C=C/C(C)=O)CC4)c3c2)cc1NS(=O)(=O)c1cccc(F)c1F [Example 90, (E)-2,3-difluoro-N-(2-methoxy-5-(4-(4-(4-oxopent-2-enoyl)piperazin-1-yl)quinazolin-6-yl)pyridin-3-yl)benzenesulfonamide] |  | 0.106 µM |  | 0.004 µM
COc1ncc(-c2ccc3ncnc(C4=CCN(C(=O)/C=C/C(C)=O)CC4)c3c2)cc1NS(=O)(=O)c1c(F)cccc1Cl [Example 202, (E)-2-chloro-6-fluoro-N-(2-methoxy-5-(4-(1-(4-oxopent-2-enoyl)-1,2,3,6-tetrahydropyridin-4-yl)quinazolin-6-yl)pyridin-3-yl)benzene-sulfonamide] | 0.0019 µM | 0.013 µM |  | 
COc1ncc(-c2ccc3ncnc(C4CCN(C(=O)/C=C/C(C)=O)CC4)c3c2)cc1NS(=O)(=O)c1sc(C)nc1C [Example 203, (E)-N-(2-methoxy-5-(4-(1-(4-oxopent-2-enoyl)piperidin-4-yl)quinazolin-6-yl)pyridin-3-yl)-2,4-dimethylthiazole-5-sulfonamide] | 0.0024 µM | 0.0167 µM |  | 
COc1ncc(-c2ccc3ncnc(N4C[C@@H](C)N(C(=O)/C=C/C(C)=O)C[C@@H]4C)c3c2)cc1NS(=O)(=O)c1ccc(F)cc1F [Example 15, N-(5-(4-((2S,5R)-2,5-dimethyl-4-((E)-4-oxopent-2-enoyl)piperazin-1-yl)quinazolin-6-yl)-2-methoxypyridin-3-yl)-2,4-difluorobenzenesulfonamide] |  | 0.243 µM | 0.0102 µM | 
CCCC(=O)/C=C/C(=O)N1CCN(c2ncnc3ccc(-c4cnc(OC)c(NS(=O)(=O)c5ccc(F)cc5F)c4)cc23)CC1 [Example 17, (E)-2,4-difluoro-N-(2-methoxy-5-(4-(4-(4-oxohept-2-enoyl)piperazin-1-yl)quinazolin-6-yl)pyridin-3-yl)benzenesulfonamide] |  | 0.106 µM | 0.0023 µM | 
[2H]C([2H])([2H])Oc1ncc(-c2ccc3ncnc(N4CCN(C(=O)/C=C/C(C)=O)CC4)c3c2)cc1NS(=O)(=O)c1ccc(F)cc1F [Example 191, (E)-2,4-difluoro-N-(2-(methoxy-d3)-5-(4-(4-(4-oxopent-2-enoyl)piperazin-1-yl)quinazolin-6-yl)pyridin-3-yl)benzene-sulfonamide] |  | 0.0408 µM |  | 
COc1ccc(Cl)c(S(=O)(=O)Nc2cc(-c3ccc4ncnc(N5CCN(C(=O)/C=C/C(C)=O)CC5)c4c3)cnc2OC)c1 [Example 184, (E)-2-chloro-5-methoxy-N-(2-methoxy-5-(4-(4-(4-oxopent-2-enoyl)piperazin-1-yl)quinazolin-6-yl)pyridin-3-yl)benzene-sulfonamide] | 0.00081 µM | 0.176 µM |  | 
COc1ncc(-c2ccc3ncnc(C4CCN(C(=O)/C=C/C(C)=O)CC4)c3c2)cc1NS(=O)(=O)c1ccccc1F [Example 204, (E)-2-fluoro-N-(2-methoxy-5-(4-(1-(4-oxopent-2-enoyl)piperidin-4-yl)quinazolin-6-yl)pyridin-3-yl)benzenesulfonamide] | 0.0033 µM | 0.0458 µM |  | 
COc1ncc(-c2ccc3ncnc(N4CCN(C(=O)/C=C/C(C)=O)CC4)c3c2)cc1NS(=O)(=O)c1ccc(F)cc1F [Example 6, (E)-2,4-difluoro-N-(2-methoxy-5-(4-(4-(4-oxopent-2-enoyl)piperazin-1-yl)quinazoline-6-yl)pyridin-3-yl)benzenesulfonamide] |  | 0.0492 µM |  | 
